In patent US20130302282A1, “Inhibitors of Hepatitis C Virus” (priority 2010, published 2013) one finds EC50 data, which are given here for 47 compounds.

For this test, the system named is 1b_Huh-Luc/Neo-ET cell line (bicistronic genotype 1b replicon in Huh 7 cells). The test is described as follows: HCV 1b replicon assay, luciferase readout. It counts as cell-based, HCV genotype 1b. The method, then:
Biological activity of the compounds of the invention was determined using an HCV replicon assay. The 1b_Huh-Luc/Neo-ET cell line persistently expressing a bicistronic genotype 1b replicon in Huh 7 cells was obtained from ReBLikon GMBH. This cell line was used to test compound inhibition using luciferase enzyme activity readout as a measurement of compound inhibition of replicon levels.
On Day 1 (the day after plating), each compound is added in triplicate to the cells. Plates incubated for 72 […] prior to running the luciferase assay. Enzyme activity was measured using a Bright-Glo Kit (cat. number E2620) manufactured by Promega Corporation. The following equation was used to generate a percent control value for each compound.
%Control=(Average Compound Value/Average Control)*100
The EC50 value was determined using GraphPad Prism and the following equation:
Y=Bottom+(Top−Bottom)/(1+10̂((LogIC50−X)*HillSlope))
EC50 values of compounds are repeated several times in the replicon assay.
A general note: A replicon is a self-replicating genome or part of one, used to study replication in cells.

Where [1] appears, read: Hepatitis C virus, Huh-7, class symbol, HCV genotype 1b replicon, read-out: Inhibition of HCV genotype 1b replicon.
The mark [2] stands for this setting: Hepatitis C virus, Huh-7, 1b_Huh-Luc/Neo-ET cell line, read-out: EC50, half-maximal inhibition of HCV 1b replication.
[3] abbreviates: class symbol, HCV genotype 1b replicon, read-out: Inhibition of HCV genotype 1b replicon.

Read-outs that look alike come from different tables or passages of the source.

`CS(=O)(=O)N1CCCCc2cc3c(C#N)c(-c4ccc(F)cc4)oc3cc21` [Compound B53]: under setting [1], the EC50 is above 1000 nM.

Turning to `CNC(=O)c1c(-c2ccc(F)cc2)oc2cc3c(cc12)C(C)OC(CNS(C)(=O)=O)CN3S(C)(=O)=O` (stereo not shown) [Compound B220], the EC50 by setting is: under setting [2], 10 to 100 nM; under setting [1], 10 to 100 nM.

Regarding `CNC(=O)c1c(-c2ccc(F)cc2)oc2cc3c(cc12)C(C)N(CCF)CCN3S(C)(=O)=O` (stereo not shown) [Compound B147], the EC50 was in the range of 10 to 100 nM under setting [2] and 10 to 100 nM under setting [1].

`CNC(=O)c1c(-c2ccc(F)cc2)oc2cc3c(cc12)[C@H](C)c1ccccc1CN3S(C)(=O)=O` (single isomer, unassigned) [Compound B203]: the EC50 lay within 10 to 100 nM under setting [2] and 10 to 100 nM under setting [1].

Regarding `CNC(=O)c1c(-c2ccc(F)cc2)oc2cc3c(cc12)C(C)OC(CN(C)C)CN3S(C)(=O)=O` (stereo not shown) [Compound B222], the EC50 lay within 10 to 100 nM under setting [2] and 10 to 100 nM under setting [1].

In the case of `CNC(=O)c1c(-c2ccc(F)cc2)oc2cc3c(cc12)[C@H](C)O[C@H](CS(C)(=O)=O)CN3S(C)(=O)=O` [Compound B215], the EC50 was 10 to 100 nM under setting [2] and 10 to 100 nM under setting [3].

Consider `CNC(=O)c1c(-c2ccc(Oc3ccc(F)c(F)c3)cc2)nn2cc3c(cc12)C(C)CCCN3S(C)(=O)=O` (stereo not shown) [B97 (3)], for which the EC50 (Hepatitis C virus, Huh-7, read-out: Inhibition of HCV genotype 1b replicon, class symbol, HCV genotype 1b replicon) lay in the range of 10 to 100 nM.

As for `CNC(=O)c1c(-c2ccc(Oc3ccc(F)cc3)cc2)oc2cc3c(cc12)[C@@H](C)OC1(CC1)CN3S(C)(=O)=O` (single isomer, unassigned) [Compound B186], the EC50 lay within 10 to 100 nM under setting [2] and 10 to 100 nM under setting [1].

As to `CNC(=O)c1c(-c2ccc(F)cc2)oc2cc3c(cc12)C(C)OC(C(=O)N1CCOCC1)CN3S(C)(=O)=O` (stereo not shown) [Compound B228], the EC50 was 10 to 100 nM under setting [2] and 10 to 100 nM under setting [1].

For `C=CCN1C(=O)CN(S(C)(=O)=O)c2cc3oc(-c4ccc(F)cc4)c(C(=O)NC)c3cc2C1C` (stereo not shown) [Compound B55], the EC50 is, setting by setting: under setting [2], 10 to 100 nM; under setting [1], 10 to 100 nM.

On to `CNC(=O)c1c(-c2ccc(F)cc2)oc2cc3c(cc12)[C@@H](C)NC(=O)CN3S(C)(=O)=O` (single isomer, unassigned) [Compound B209], for which the EC50 under setting [1] is 100 to 1000 nM.

Take `CNC(=O)c1c(-c2ccc(F)cc2)oc2cc3c(cc12)C1(CCN3S(C)(=O)=O)CC1` [Compound B2]: the EC50 is 10 to 100 nM under setting [2] and 10 to 100 nM under setting [1].

Turning to `CNC(=O)c1c(-c2ccc(F)cc2)oc2cc3c(cc12)C(C)N(CC(F)(F)F)CCN3S(C)(=O)=O` (stereo not shown) [Compound B107], the EC50 by setting is: under setting [2], at most 10 nM; under setting [1], below 10 nM.

`CNC(=O)c1c(-c2ccc(Oc3ccc(F)cc3)cc2)oc2cc3c(cc12)C(C)N(C)C(=O)CN3S(C)(=O)=O` (stereo not shown) [Compound B174]: the EC50 is, setting by setting: under setting [2], 10 to 100 nM; under setting [1], 10 to 100 nM.

`C=C1CCCN(S(C)(=O)=O)c2cc3oc(-c4ccc(Oc5ccc(F)cc5)cc4)c(C(=O)NC)c3cc21` [Compound B46]: the EC50 under setting [1] was in the range of 100 to 1000 nM.

`CNC(=O)c1c(-c2ccc(Oc3cccc(F)c3)cc2)nn2cc3c(cc12)C(C)CCCN3S(C)(=O)=O` (stereo not shown) [Compound B96]: under setting [1], the EC50 lay in the range of 10 to 100 nM.

For the compound `CNC(=O)c1c(-c2ccc(F)cc2)oc2cc3c(cc12)C(C)OC(CN1CCOCC1)CN3S(C)(=O)=O` (stereo not shown) [Compound B205], the EC50 runs as follows: under setting [2], 10 to 100 nM; under setting [1], 10 to 100 nM.

Consider `CS(=O)(=O)N1CCCCCc2cc3c(-c4ncc[nH]4)c(-c4ccc(F)cc4)nn3cc21` [Compound B129], for which the EC50 under setting [1] lay in the range of 10 to 100 nM.

Consider `CNC(=O)c1c(-c2ccc(Oc3ccc(F)cc3)cc2)oc2cc3c(cc12)C(C)OC(C)(C)CN3S(C)(=O)=O` (stereo not shown) [Compound B167], for which the EC50 lay in the range of 10 to 100 nM under setting [2] and 10 to 100 nM under setting [1].

On to `CNC(=O)c1c(-c2ccc(F)cc2)oc2cc3c(cc12)C(C)N(CC(=O)O)CCN3S(C)(=O)=O` (stereo not shown) [Compound B149], for which the EC50 under setting [1] was above 1000 nM.

Regarding `CNC(=O)c1c(-c2ccc(Oc3ccc(F)cc3)cc2)oc2cc3c(cc12)[C@H](C)O[C@H](CS(C)(=O)=O)CN3S(C)(=O)=O` [Compound B216], the EC50 fell in the range of 10 to 100 nM under setting [2] and 10 to 100 nM under setting [3].

For the compound `CNC(=O)c1c(-c2ccc(F)cc2)oc2cc3c(cc12)[C@H]1C[C@H]1CCN3S(C)(=O)=O` (single isomer, unassigned) [Compound B133], the EC50 under setting [1] was above 1000 nM.

Regarding `CNC(=O)c1c(-c2ccc(F)cc2)oc2cc3c(cc12)C(C)CCCCN3S(C)(=O)=O` (stereo not shown) [Compound B94], the EC50 is at most 10 nM under setting [2] and below 10 nM under setting [1].

In the case of `CNC(=O)c1c(-c2ccc(Oc3ccc(F)cc3)cc2)oc2cc3c(cc12)[C@H](C)O[C@H](COC(=O)CN(C)C)CN3S(C)(=O)=O` [Compound B239], the EC50 runs as follows: under setting [2], at most 10 nM; under setting [1], below 10 nM.

Take `CNC(=O)c1c(-c2ccc(F)cc2)oc2cc3c(cc12)[C@@H](C)O[C@@H](CO)CN3S(C)(=O)=O` [Compound B211]: under setting [1], the EC50 was above 1000 nM.

Consider `CNC(=O)c1c(-c2ccc(Oc3ccc(F)cc3)cc2)oc2cc3c(cc12)[C@H](C)O[C@@H](CO)CN3S(C)(=O)=O` [Compound B241], for which the EC50 lay in the range of 10 to 100 nM under setting [2] and 10 to 100 nM under setting [1].

`CNC(=O)c1c(-c2ccc(Oc3ccc(F)cc3)cc2)oc2cc3c(cc12)C(C)OC(CO)CN3S(C)(=O)=O` (stereo not shown) [Compound B191]: under setting [3], the EC50 was below 10 nM.

In the case of `CNC(=O)c1c(-c2ccc(F)cc2F)oc2cc3c(cc12)C(=O)CCCN3S(C)(=O)=O` [Compound B49], the EC50 under setting [1] was 100 to 1000 nM.

In the case of `CNC(=O)c1c(-c2ccc(F)cc2)oc2cc3c(cc12)[C@@H](C)n1nncc1CN3S(C)(=O)=O` (single isomer, unassigned) [Compound B170], the EC50 by setting is: under setting [2], 10 to 100 nM; under setting [1], 10 to 100 nM.

Turning to `CNC(=O)c1c(-c2ccc(F)cc2)oc2cc3c(cc12)C(C)N(Cc1ccc(F)cc1)CCN3S(C)(=O)=O` (stereo not shown) [Compound B142], the EC50 lay in the range of 10 to 100 nM under setting [2] and 10 to 100 nM under setting [1].

As to `CNC(=O)c1c(-c2ccc(Oc3ccc(F)cc3)cc2)oc2cc3c(cc12)C(C)NC(=O)CN3S(C)(=O)=O` (stereo not shown) [Compound B175], the EC50 is, setting by setting: under setting [2], 10 to 100 nM; under setting [1], 10 to 100 nM.

`CNC(=O)c1c(-c2ccc(F)cc2)oc2cc3c(cc12)C(C)OC(CS(C)(=O)=O)CN3S(C)(=O)=O` (stereo not shown) [Compound B196]: the EC50 runs as follows: under setting [2], at most 10 nM; under setting [1], below 10 nM.

`CNC(=O)c1c(-c2ccc(Oc3ccccc3Cl)cc2)nn2cc3c(cc12)C(C)CCCN3S(C)(=O)=O` (stereo not shown) [Compound B91]: under setting [1], the EC50 lay within 100 to 1000 nM.

As for `CNC(=O)c1c(-c2ccc(F)cc2)nn2cc3c(cc12)C(C)OC(CO)CN3S(C)(=O)=O` (stereo not shown) [Compound B242], the EC50 under setting [1] fell in the range of 100 to 1000 nM.

As to `CNC(=O)c1c(-c2ccc(F)cc2)oc2cc3c(cc12)[C@H](C)O[C@H](CCS(C)(=O)=O)CN3S(C)(=O)=O` [Compound B233], the EC50 reads like this: under setting [2], at most 10 nM; under setting [1], below 10 nM.

With `CNC(=O)c1c(-c2ccc(F)cc2)oc2cc3c(cc12)C(C)n1nnnc1CN3S(C)(=O)=O` (stereo not shown) [Compound B189], the EC50 under setting [2] was in the range of 10 to 100 nM and the EC50 under setting [1] fell in the range of 10 to 100 nM.

In the case of `C=C1CCCN(S(C)(=O)=O)c2cc3oc(-c4ccc(F)cc4OC)c(C(=O)NC)c3cc21` [Compound B83], the EC50 under setting [1] is above 1000 nM.

As to `CNC(=O)c1c(-c2ccc(Oc3ccc(F)cc3)cc2)oc2cc3c(cc12)[C@@H](C)CCCN3S(C)(=O)=O` (single isomer, unassigned) [Compound B86], the EC50 under setting [1] lay within 100 to 1000 nM.

On to `CNC(=O)c1c(-c2ccc(Oc3ccc(F)cc3)cc2)oc2cc3c(cc12)C(C)OC(C)CN3S(C)(=O)=O` (stereo not shown) [Compound B168], for which the EC50 was at most 10 nM under setting [2] and below 10 nM under setting [1].

As for `CNC(=O)c1c(-c2ccc(F)cc2)oc2cc3c(cc12)CCCCN3S(=O)(=O)C1CC1` [Compound B93], the EC50 is, setting by setting: under setting [2], 10 to 100 nM; under setting [1], 10 to 100 nM.

In the case of `CNC(=O)c1c(-c2ccc(Oc3ccc(F)cc3)cc2)oc2cc3c(cc12)[C@H](C)O[C@H](COP(=O)(O)O)CN3S(C)(=O)=O` [Compound B240], the EC50 under setting [2] was at most 10 nM and the EC50 under setting [1] was below 10 nM.

Consider `CNC(=O)c1c(-c2ccc(Oc3ccc(F)cc3)cc2)oc2cc3c(cc12)CCCCN3S(C)(=O)=O` [Compound B136], for which the EC50 under setting [2] was in the range of 10 to 100 nM and the EC50 under setting [1] is 10 to 100 nM.

As for `CNC(=O)c1c(-c2ccc(F)cc2)oc2cc3c(cc12)C(C)OC(CC#N)CN3S(C)(=O)=O` (stereo not shown) [Compound B226], the EC50 under setting [2] was at most 10 nM and the EC50 under setting [1] was below 10 nM.

With `CS(=O)(=O)N1CCCCCc2cc3c(-c4ncc[nH]4)c(-c4ccc(F)cc4)oc3cc21` [Compound B130], the EC50 by setting is: under setting [2], at most 10 nM; under setting [1], below 10 nM.

In the case of `CNC(=O)c1c(-c2ccc(F)cc2)oc2cc3c(cc12)[C@H](C)O[C@@H](CCS(C)(=O)=O)CN3S(C)(=O)=O` [Compound B234], the EC50 fell in the range of 10 to 100 nM under setting [2] and 10 to 100 nM under setting [1].

Turning to `CNC(=O)c1c(-c2ccc(Oc3ccc(F)cc3)cc2)oc2cc3c(cc12)[C@@H](C)n1nncc1CN3S(C)(=O)=O` (single isomer, unassigned) [Compound B164], the EC50 is, setting by setting: under setting [2], 10 to 100 nM; under setting [1], 10 to 100 nM.

Consider `CNC(=O)c1c(-c2ccc(F)cc2)oc2cc3c(cc12)C(C)N([C@H](C)c1ccc(F)cc1)CCN3S(C)(=O)=O` (stereo partly shown) [Compound B159], for which the EC50 under setting [2] fell in the range of 10 to 100 nM and the EC50 under setting [1] was 10 to 100 nM.
